The values below come from ChEMBL document CHEMBL1201862, “PubChem BioAssay data set” (2004).

Where a name gives a salt, the structure may show the parent alone.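 Cells were grown in 96-well plates and exposed to each compound for 48 hours at five concentrations; endpoints were interpolated linearly between bracketing concentrations, or set to the highest concentration if not reached. GI50 marks 50% less growth.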 Calls of active or inactive are those of the source. No stated cut-off is given here; in the data, active = GI50 up to about 1.1 µM and inactive = higher. A value given as a limit tells only on which side of the number the result lay.

Common to all, as to experiment: NCI tumour cell line growth inhibition, 48 h
Test [1] concerns ACHN.
For test [2], the system named is DU-145.
The test system of test [3] is HCC 2998.
Test [4] has as its system HOP-62.
Test [5] has as its system IGROV-1.
For test [6], the system named is K562.
The test system of test [7] is KM12.
The subject of test [8] is NCI-H23.
Test [9] concerns NCI-H460.
The test system of test [10] is OVCAR-4.
The subject of test [11] is RXF 393.
The test system of test [12] is SF-268.
Test [13] concerns SF-295.
In test [14] the test system is SK-MEL-28.
Test [15] deals with SK-MEL-2.
For test [16], the system named is SK-MEL-5.

Turning to `NC1N=C(c2ccc(Cl)cc2)C2=C(N1)c1ccccc1CC2` (configuration not stated), the GI50 in test [1] was > 51.2 µM (inactive); in [2] it was 52.4 µM (inactive); in test [3], 0.156 µM (active); in test [4], > 40.6 µM (inactive); in test [5] it was 5.68 µM (inactive); in test [6], 3.48 µM (inactive). Further, the GI50 in test [7] is 4.03 µM (inactive); in test [8] it was 30 µM (inactive); in test [9], 8.51 µM (inactive); in test [10] it was 13.4 µM (inactive); in test [11], 7.96 µM (inactive); in test [12], > 54 µM (inactive). The GI50 in [13] was 22.3 µM (inactive); in test [14] it was 64.7 µM (inactive); in test [15], 9.08 µM (inactive); in test [16] it was 14.7 µM (inactive).

As for `Clc1ccc(C2=Cc3nc2c(-c2ccccc2)c2ccc([nH]2)c(-c2ccccc2)c2nc(c(-c4ccccc4)c4ccc([nH]4)c3-c3ccccc3)C=C2)cc1`, the GI50 in [1], in [2], in [3], in [4], in [5] and in test [6] was > 62.5 µM (inactive) in each case. Moreover, the GI50 in [7], in test [8], in [9], in test [10], in [11] and in [12] was > 62.5 µM (inactive) throughout. Further, the GI50 in [13], in test [14], in [15] and in test [16] was > 62.5 µM (inactive) throughout.

Consider `N=C(N)NS(=O)(=O)c1ccc(NC(=O)c2ccc3nc4ccccc4c(Nc4ccc(S(=O)(=O)N=C(N)N)cc4)c3c2)cc1`, for which the GI50 in test [1], in [2], in [3], in [4], in test [5] and in [6] was > 100 µM (inactive) throughout. For the same molecule, the GI50 in [7], in test [8], in test [9], in test [10], in test [11] and in test [12] was > 100 µM (inactive) each time. Further, the GI50 in test [13], in [14], in test [15] and in test [16] was > 100 µM (inactive) throughout.

Take `NCCCCN` [PUTRESCINE HYDROCHLORIDE]: the GI50 in [1], in [2], in test [3], in test [4], in test [5] and in test [6] was > 100 µM (inactive) in each case. The GI50 is 16.3 µM (inactive) in [7]; > 100 µM (inactive) in test [8]; > 100 µM (inactive) in test [9]; 19.4 µM (inactive) in [10]; > 100 µM (inactive) in test [11]; > 100 µM (inactive) in test [12]. Also, the GI50 in [13], in test [14], in test [15] and in test [16] was > 100 µM (inactive) throughout.

Consider `C1CCC(CC2CCC(NC3=NCCO3)CC2)CC1` (configuration not stated), for which the GI50 in test [1] was 19.5 µM (inactive); in [2] it was 30 µM (inactive); in test [3] it was 20.7 µM (inactive); in test [4], 20.6 µM (inactive); in [5], 19.7 µM (inactive); in test [6] it was 14 µM (inactive). For the same molecule, the GI50 in test [7] was 18.3 µM (inactive); in test [8] it was 17.9 µM (inactive); in test [9] it was 20.2 µM (inactive); in test [10] it was 20.2 µM (inactive); in test [11] it was 18.3 µM (inactive); in test [12] it was 26 µM (inactive). For the same molecule, the GI50 in test [13] is 19.7 µM (inactive); in test [14] it was 18.1 µM (inactive); in test [15], 18.4 µM (inactive); in test [16], 19.5 µM (inactive).

`O=C(O)CN1CCNCCN(CC(=O)O)CC1`: the GI50 in test [1] is > 84.5 µM (inactive); in test [2], > 100 µM (inactive); in test [3], 10.6 µM (inactive); in [4] it was > 27.7 µM (inactive); in test [5] it was 12.6 µM (inactive); in [6], 3.76 µM (inactive). Also, the GI50 in test [7] is 16.8 µM (inactive); in test [8] it was 3.25 µM (inactive); in [9] it was 7.66 µM (inactive); in [10] it was 38.8 µM (inactive); in test [11], 13.6 µM (inactive); in test [12] it was 89.1 µM (inactive). In addition, the GI50 in test [13] is > 69 µM (inactive); in [14] it was 33.8 µM (inactive); in test [15], 26.4 µM (inactive); in [16], 5.48 µM (inactive).

For `C=CCOC1=C(OC(C)=O)C(=O)OC1C1COC(C)(C)O1` (configuration not stated), the GI50 in test [1] is 21.6 µM (inactive); in test [2] it was > 92.9 µM (inactive); in test [3], 36.4 µM (inactive); in test [4], 29.4 µM (inactive); in [5] it was 37.9 µM (inactive); in test [6] it was 23.6 µM (inactive). Also, the GI50 in test [7] was 34.2 µM (inactive); in test [8] it was 31.5 µM (inactive); in test [9], > 62.5 µM (inactive); in test [10] it was 17.2 µM (inactive); in [11] it was 26.3 µM (inactive); in test [12] it was 48.4 µM (inactive). Moreover, the GI50 in test [13] was 79.1 µM (inactive); in test [14] it was 17.3 µM (inactive); in [15], > 52.6 µM (inactive); in [16], 44.6 µM (inactive).

Consider `CNC(=O)OCc1cnc([N+](=O)[O-])n1C`, for which the GI50 in [1], in test [2], in test [3], in test [4], in [5] and in [6] was > 100 µM (inactive) in each case. Further, the GI50 in test [7], in test [8], in [9], in test [10], in test [11] and in test [12] was > 100 µM (inactive) throughout. The GI50 in test [13], in test [14], in [15] and in test [16] was > 100 µM (inactive) throughout.

Take `Cc1cccc(/N=N/c2ccc(O)c(CN(C)C)c2)c1`: the GI50 was 8 µM (inactive) in test [1]; > 10 µM (inactive) in test [2]; 16.4 µM (inactive) in [3]; 11.1 µM (inactive) in test [4]; 21.8 µM (inactive) in [5]; 3.33 µM (inactive) in test [6]. The GI50 in test [7] is 13.4 µM (inactive); in test [8], 57.8 µM (inactive); in test [9] it was 16.7 µM (inactive); in test [10], 55.3 µM (inactive); in test [11], 29 µM (inactive); in test [12] it was 26.2 µM (inactive). Further, the GI50 was 28.4 µM (inactive) in test [13], 19.2 µM (inactive) in test [14], 20.7 µM (inactive) in test [15] and 14 µM (inactive) in test [16].

As for `O=C1Nc2cc(Cl)ccc2C(=O)N2CCC[C@@H]12`, the GI50 in test [1], in test [2], in [3], in test [4], in test [5] and in test [6] was > 100 µM (inactive) throughout. The GI50 in test [7], in test [8], in test [9], in test [10], in [11] and in test [12] was > 100 µM (inactive) in each case. The GI50 in test [13], in test [14], in test [15] and in test [16] was > 100 µM (inactive) throughout.

For the molecule `Cc1cc(NS(=O)(=O)c2ccc(NC(=O)c3cccc4c(NNc5ccc(S(N)(=O)=O)cc5)c5ccccc5nc34)cc2)no1`, the GI50 in test [1] was 39 µM (inactive); in [2], 86.5 µM (inactive); in [3], 27.3 µM (inactive); in [4], 42.4 µM (inactive); in test [5] it was 47.3 µM (inactive); in test [6] it was 33.4 µM (inactive). The GI50 in test [7] was 38.1 µM (inactive); in test [8], 64.7 µM (inactive); in test [9] it was 34.9 µM (inactive); in test [10] it was 31.8 µM (inactive); in test [11] it was 41.5 µM (inactive); in [12], 34.9 µM (inactive). Moreover, the GI50 was 44.4 µM (inactive) in test [13], 35.2 µM (inactive) in test [14], 24 µM (inactive) in test [15] and 39.5 µM (inactive) in test [16].

`Cc1c(-c2cnccn2)ssc1=S` [OLTIPRAZ]: the GI50 in [1] was 44 µM (inactive); in test [2] it was > 100 µM (inactive); in test [3], > 100 µM (inactive); in test [4], 47 µM (inactive); in test [5], > 100 µM (inactive); in test [6] it was > 100 µM (inactive). Further, the GI50 in test [7] was > 80.9 µM (inactive); in test [8], 88.5 µM (inactive); in [9], > 100 µM (inactive); in test [10] it was > 100 µM (inactive); in [11], 31.9 µM (inactive); in test [12], 56.2 µM (inactive). For the same molecule, the GI50 is 57.4 µM (inactive) in test [13], > 100 µM (inactive) in test [14], 53.3 µM (inactive) in test [15] and 36.3 µM (inactive) in test [16].
